IC50 data for four molecules are collected here from ChEMBL document CHEMBL1201861, “Genomics of Drug Sensitity in Cancer screening data, Wellcome Trust Sanger Institute”.

Holding throughout (test): cells
What all share (format): functional, cell-based, Homo sapiens

One test relates to KMS-12-PE. The settings on record: Homo sapiens, KMS-12-PE.
The subject of the next test is BOKU. The settings on record: Homo sapiens, BOKU.
A further test relates to EB-3. Conditions: Homo sapiens, EB-3.
In a further test the test system is JIYOYE. The settings on record: Homo sapiens, JIYOYE.
Another test relates to DMS-153. The settings on record: Homo sapiens, DMS-153.
A further test deals with SNU-C1. Conditions: Homo sapiens, SNU-C1.
For the next test, the system named is ECC4. The settings on record: Homo sapiens, ECC4.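 Further: growth inhibition of ECC4 cells, read out with a cell viability assay.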
In a further test the test system is ARH-77. Conditions: Homo sapiens, ARH-77.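 Further: growth inhibition of ARH-77 cells, read out by a cell viability assay.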
The subject of another test is KARPAS-422. The settings on record: Homo sapiens, KARPAS-422.
For the next test, the system named is P31-FUJ. The settings on record: Homo sapiens, P31-FUJ.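 Further: growth inhibition of P31-FUJ cells, read out with a viability assay.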
A further test deals with D-336MG. The settings on record: Homo sapiens, D-336MG.
The next test has as its system GDM-1. Conditions: Homo sapiens, GDM-1.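 Further: cell viability readout used to measure growth inhibition of human GDM-1 cells.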
The next test concerns LP-1. Conditions: Homo sapiens, LP-1.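 Further: growth inhibition of human LP-1 cells, with the read-out taken from a cell viability assay.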

Usually IC50 stands for the point on the concentration scale where inhibition reaches its midpoint. Higher therefore signals weaker potency.

Description for ARH-77: SANGER: Inhibition of human ARH-77 cell growth in a cell viability assay.
Description for BOKU: SANGER: Inhibition of human BOKU cell growth in a cell viability assay.
Description for D-336MG: SANGER: Inhibition of human D-336MG cell growth in a cell viability assay.
Description for DMS-153: SANGER: Inhibition of human DMS-153 cell growth in a cell viability assay.
Description for EB-3: SANGER: Inhibition of human EB-3 cell growth in a cell viability assay.
Description for ECC4: SANGER: Inhibition of human ECC4 cell growth in a cell viability assay.
Description for GDM-1: SANGER: Inhibition of human GDM-1 cell growth in a cell viability assay.
Description for JIYOYE: SANGER: Inhibition of human JiyoyeP-2003 cell growth in a cell viability assay.
Description for KARPAS-422: SANGER: Inhibition of human KARPAS-422 cell growth in a cell viability assay.
Description for KMS-12-PE: SANGER: Inhibition of human KMS-12-PE cell growth in a cell viability assay.
Description for LP-1: SANGER: Inhibition of human LP-1 cell growth in a cell viability assay.
Description for P31-FUJ: SANGER: Inhibition of human P31-FUJ cell growth in a cell viability assay.
Description for SNU-C1: SANGER: Inhibition of human SNU-C1 cell growth in a cell viability assay.

Consider `CC(=O)O[C@H]1C(=O)[C@@]2(C)[C@H]([C@H](OC(=O)c3ccccc3)[C@]3(O)C[C@H](OC(=O)[C@H](O)[C@@H](NC(=O)c4ccccc4)c4ccccc4)C(C)=C1C3(C)C)[C@]1(OC(C)=O)CO[C@@H]1C[C@@H]2O` [PACLITAXEL], for which the IC50 in the test with KMS-12-PE is above 102 nM; with BOKU, above 102 nM; in the test on EB-3, above 102 nM; with JIYOYE, 21.8 nM; with DMS-153, above 102 nM; with SNU-C1, above 102 nM. Besides, the half-maximal inhibitory concentration (IC50) is above 102 nM in the test with ECC4; 26 nM in the test with ARH-77; 56.5 nM in the test with KARPAS-422; above 102 nM in the test with P31-FUJ; above 102 nM with D-336MG; above 102 nM in the test with GDM-1. In the test with LP-1, this molecule displayed an IC50 above 102 nM.

`COc1cc(-c2nn([C@H]3CC[C@H](N4CCN(C(C)=O)CC4)CC3)c3ncnc(N)c23)ccc1NC(=O)c1cc2ccccc2n1C`: the IC50 is above 5120 nM in the test on KMS-12-PE; above 5120 nM in the test with BOKU; above 5120 nM in the test with EB-3; 4210 nM in the test with JIYOYE; above 5120 nM in the test with DMS-153; above 5120 nM in the test with SNU-C1. Besides, the IC50 with ECC4 was above 5120 nM; in the test with ARH-77, above 5120 nM; in the test with KARPAS-422, above 5120 nM; in the test with P31-FUJ, above 5120 nM; in the test with D-336MG, 212 nM; with GDM-1 it was above 5120 nM. For the same molecule, the half-inhibitory concentration (IC50) in the test on LP-1 is above 5120 nM.

As to `CCN(CC)CCNC(=O)c1c(C)[nH]c(/C=C2\C(=O)Nc3ccc(F)cc32)c1C` [SUNITINIB], the IC50 in the test with KMS-12-PE, with BOKU, in the test on EB-3, with JIYOYE, in the test with DMS-153 and with SNU-C1 was above 8000 nM in each case. The IC50 in the test on ECC4 is above 8000 nM; with ARH-77 it was 7540 nM; in the test on KARPAS-422 it was 7570 nM; in the test with P31-FUJ it was above 8000 nM; in the test with D-336MG it was above 8000 nM; in the test with GDM-1, above 8000 nM. This molecule also gave an IC50 in the test on LP-1 above 8000 nM.

On to `OCCCNc1cc(-c2ccnc(Nc3cccc(Cl)c3)n2)ccn1`, for which the IC50 in the test with KMS-12-PE was above 256 nM; in the test on BOKU, 54.3 nM; with EB-3 it was 64.8 nM; in the test on JIYOYE, 32.2 nM; in the test with DMS-153, above 256 nM; with SNU-C1 it was above 256 nM. The IC50 is above 256 nM in the test with ECC4; 81.9 nM in the test on ARH-77; 57.2 nM with KARPAS-422; above 256 nM in the test on P31-FUJ; 109 nM in the test on D-336MG; above 256 nM in the test with GDM-1. In the test with LP-1, this molecule yielded a concentration for half-maximal inhibition (IC50) of 52.1 nM.
